Test system: σ1 receptor and the μ-opiod receptor
Assay: μ and σ1 dual binding: combined class from the Ki of both radioligand assays
Design: species or system human; key to μ and σ1 dual binding: +: Both Ki-μ and Ki-σ1>=500 nM; ++: One Ki<500 nM while the other Ki is >=500 nM; +++: Both Ki-μ and Ki-σ1<500 nM; ++++: Both Ki-μ and Ki-σ1<100 nM
Conditions: combined class for Ki-μ and Ki-σ1; transfected HEK-293 membranes (σ1), transfected CHO-K1 cell membranes (μ)
Method in brief: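 Classes combine both Ki values, split at 500 nM and 100 nM. Human μ-opioid binding used 1 nM [3H]-DAMGO on CHO-K1 membranes (27 °C, 60 min, pH 7.4, naloxone 10 μM for NSB); human σ1 used 5 nM [3H](+)-pentazocine on HEK-293 membranes (37 °C, 120 min, pH 8, haloperidol 10 μM for NSB).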

`CS(=O)(=O)Nc1cccc(C2CCN(Cc3nnn4c3-c3ccccc3C4)CC2)c1` [Example 119, N-(3-(1-((8H-[1,2,3]triazolo[5,1-a]isoindol-3-yl)methyl)piperidin-4-yl)phenyl)methanesulfonamide] was tested. Which “μ and σ1 dual binding” value did it give?
The value was “++”.

Which “μ and σ1 dual binding” value does the source give for `CC(C)S(=O)(=O)Nc1cccc(C2CCN(Cc3cn(Cc4cc(N=[N+]=[N-])ccn4)nn3)CC2)c1` [Example 128] here?
Its value is “++”.

For `CS(=O)(=O)Nc1cccc(C2CCN(Cc3nnc(-c4ccccc4)o3)CC2)c1` [Example 175, N-(3-(1-((5-phenyl-1,3,4-oxadiazol-2-yl)methyl)piperidin-4-yl)phenyl)methanesulfonamide], which “μ and σ1 dual binding” value is on record?
Its value is “++”.

Which “μ and σ1 dual binding” value does the source give for `CC(C)S(=O)(=O)Nc1cccc(C2CCN(Cc3cn(Cc4ncccc4F)nn3)CC2)n1` [Example 209, N-(6-(1-((1-((3-fluoropyridin-2-yl)methyl)-1H-1,2,3-triazol-4-yl)methyl)piperidin-4-yl)pyridin-2-yl)propane-2-sulfonamide] here?
Its value is “++”.

`CC(C)S(=O)(=O)Nc1cccc(C2CCN(Cc3cn([C@@H]4c5ccccc5C[C@H]4O)nn3)CC2)c1` [Example 104, N-(3-(1-((1-((1R,2R)-2-hydroxy-2,3-dihydro-1H-inden-1-yl)-1H-1,2,3-triazol-4-yl)methyl)piperidin-4-yl)phenyl)propane-2-sulfonamide] was tested. Which “μ and σ1 dual binding” value did it give?
Its value is “++”.

Which “μ and σ1 dual binding” value does the source give for `CS(=O)(=O)Nc1cccc(C2CCN(Cc3cn(Cc4ccccn4)nn3)CC2)c1` [Example 98, N-(3-(1-((1-(pyridin-2-ylmethyl)-1H-1,2,3-triazol-4-yl)methyl)piperidin-4-yl)phenyl)methanesulfonamide] here?
The value was “++”.

For `Oc1cccc(C2CCN(Cc3nnn4c3-c3ccccc3C4)CC2)c1` [Example 120, 3-(1-((8H-[1,2,3]triazolo[5,1-a]isoindol-3-yl)methyl)piperidin-4-yl)phenol], which “μ and σ1 dual binding” value is on record?
The value was “++”.

Which “μ and σ1 dual binding” value does the source give for `Oc1cccc(C2CCN(Cc3cn(Cc4ncccc4F)cn3)CC2)c1` [Example 189, 3-(1-((1-((3-fluoropyridin-2-yl)methyl)-1H-imidazol-4-yl)methyl)piperidin-4-yl)phenol] here?
Its value is “++”.

`CC(C)S(=O)(=O)Nc1cccc(C2CCN(Cc3cn(Cc4cnc(C(F)(F)F)nc4)nn3)CC2)c1` [Example 129, N-(3-(1-((1-((2-(trifluoromethyl)pyrimidin-5-yl)methyl)-1H-1,2,3-triazol-4-yl)methyl)piperidin-4-yl)phenyl)propane-2-sulfonamide] was tested. Which “μ and σ1 dual binding” value did it give?
Its value is “++”.

Same assay, conditions: transfected HEK-293 membranes (σ1), transfected CHO-K1 cell membranes (μ)

How did the Ki range for both μ and σ1 (dual-binding class) turn out when `Oc1cccc(C2CCN(Cc3cn(-c4ccccn4)nn3)CC2)c1` [Example 84, 3-(1-((1-(pyridin-2-yl)-1H-1,2,3-triazol-4-yl)methyl)piperidin-4-yl)phenol] was run?
Its Ki range for both μ and σ1 (dual-binding class) is less than 100 nM.

How did the Ki range for both μ and σ1 (dual-binding class) turn out when `Oc1cccc(C2CCN(Cc3cn(C4CCc5ccccc54)nn3)CC2)c1` (stereo not drawn) [Example 46, 3-(1-((1-(2,3-dihydro-1H-inden-1-yl)-1H-1,2,3-triazol-4-yl)methyl)piperidin-4-yl)phenol] was run?
The Ki range for both μ and σ1 (dual-binding class) was less than 100 nM.

With `Nc1nc2c(C3CCN(Cc4cn(-c5ccccc5)nn4)CC3)cccc2s1` [Example 50, 4-(1-((1-phenyl-1H-1,2,3-triazol-4-yl)methyl)piperidin-4-yl)benzo[d]thiazol-2-amine] as the compound, how does the Ki range for both μ and σ1 (dual-binding class) read?
The Ki range for both μ and σ1 (dual-binding class) was less than 100 nM.

With `Oc1cccc(C2CCN(Cc3cn([C@H]4c5ccccc5C[C@@H]4O)nn3)CC2)c1` [Example 65, (1S,2S)-1-(4-((4-(3-hydroxyphenyl)piperidin-1-yl)methyl)-1H-1,2,3-triazol-1-yl)-2,3-dihydro-1H-inden-2-ol] as the compound, how does the Ki range for both μ and σ1 (dual-binding class) read?
The Ki range for both μ and σ1 (dual-binding class) was less than 500 nM.

How did the Ki range for both μ and σ1 (dual-binding class) turn out when `CCCn1cc(CN2CCC(c3cccc(O)c3)CC2)nn1` [Example 3, 3-(1-((1-propyl-1H-1,2,3-triazol-4-yl)methyl)piperidin-4-yl)phenol] was run?
Its Ki range for both μ and σ1 (dual-binding class) is less than 500 nM.

For `CC(C)S(=O)(=O)Nc1cccc(C2CCN(Cc3cn(-c4ccccc4)nn3)CC2)n1` [Example 207, N-(6-(1-((1-phenyl-1H-1,2,3-triazol-4-yl)methyl)piperidin-4-yl)pyridin-2-yl)propane-2-sulfonamide], which Ki range for both μ and σ1 (dual-binding class) is on record?
Its Ki range for both μ and σ1 (dual-binding class) is less than 500 nM.

How did the Ki range for both μ and σ1 (dual-binding class) turn out when `Oc1ccc(-n2cc(CN3CCC(c4cccc(O)c4)CC3)nn2)cc1` [Example 107, 3-(1-((1-(4-hydroxyphenyl)-1H-1,2,3-triazol-4-yl)methyl)piperidin-4-yl)phenol] was run?
Its Ki range for both μ and σ1 (dual-binding class) is less than 100 nM.

`CCNC(=O)Nc1cccc(C2CCN(Cc3cn(Cc4ccccn4)nn3)CC2)c1` [Example 111, 1-ethyl-3-(3-(1-((1-(pyridin-2-ylmethyl)-1H-1,2,3-triazol-4-yl)methyl)piperidin-4-yl)phenyl)urea] was tested. Which Ki range for both μ and σ1 (dual-binding class) did it give?
Its Ki range for both μ and σ1 (dual-binding class) is no less than 500 nM.

Which Ki range for both μ and σ1 (dual-binding class) does the source give for `OC[C@@H](c1ccccc1)n1cc(CN2CCC(c3cccc(O)c3)CC2)nn1` (stereo in doubt) [Example 149, (R)-3-(1-((1-(2-hydroxy-1-phenylethyl)-1H-1,2,3-triazol-4-yl)methyl)piperidin-4-yl)phenol] here?
The Ki range for both μ and σ1 (dual-binding class) was less than 500 nM.

For `CS(=O)(=O)Nc1cccc(C2CCN(Cc3cn(-c4cccc(F)c4)nn3)CC2)c1` [Example 28, N-(3-(1-((1-(3-fluorophenyl)-1H-1,2,3-triazol-4-yl)methyl)piperidin-4-yl)phenyl)methanesulfonamide], which Ki range for both μ and σ1 (dual-binding class) is on record?
The Ki range for both μ and σ1 (dual-binding class) was less than 100 nM.

Which Ki range for both μ and σ1 (dual-binding class) does the source give for `Oc1cccc(C2CCN(Cc3cn(-c4ncccc4F)nn3)CC2)c1` [Example 154, 3-(1-((1-(3-fluoropyridin-2-yl)-1H-1,2,3-triazol-4-yl)methyl)piperidin-4-yl)phenol] here?
Its Ki range for both μ and σ1 (dual-binding class) is less than 500 nM.

How did the Ki range for both μ and σ1 (dual-binding class) turn out when `CS(=O)(=O)Nc1cccc(C2CCN(Cc3cn(-c4ccccc4F)nn3)CC2)c1` [Example 27, N-(3-(1-((1-(2-fluorophenyl)-1H-1,2,3-triazol-4-yl)methyl)piperidin-4-yl)phenyl)methanesulfonamide] was run?
Its Ki range for both μ and σ1 (dual-binding class) is less than 100 nM.

For `Oc1cccc(C2CCN(Cc3cn(-c4ccc(Cl)cn4)nn3)CC2)c1` [Example 148, 3-(1-((1-(5-chloropyridin-2-yl)-1H-1,2,3-triazol-4-yl)methyl)piperidin-4-yl)phenol], which Ki range for both μ and σ1 (dual-binding class) is on record?
The Ki range for both μ and σ1 (dual-binding class) was less than 100 nM.

`Oc1cccc(C2CCN(Cc3cn(-c4ccc(C(F)(F)F)nc4)nn3)CC2)c1` [Example 60, 3-(1-((1-(6-(trifluoromethyl)pyridin-3-yl)-1H-1,2,3-triazol-4-yl)methyl)piperidin-4-yl)phenol] was tested. Which Ki range for both μ and σ1 (dual-binding class) did it give?
The Ki range for both μ and σ1 (dual-binding class) was less than 100 nM.

How did the Ki range for both μ and σ1 (dual-binding class) turn out when `CCC(=O)Nc1cc(C2CCN(Cc3cn(-c4ccccc4)nn3)CC2)ccn1` [Example 196, N-(4-(1-((1-phenyl-1H-1,2,3-triazol-4-yl)methyl)piperidin-4-yl)pyridin-2-yl)propionamide] was run?
The Ki range for both μ and σ1 (dual-binding class) was no less than 500 nM.

How did the Ki range for both μ and σ1 (dual-binding class) turn out when `Oc1cccc(C2CCN(Cc3cn(-c4ccncc4)nn3)CC2)c1` [Example 14, 3-(1-((1-(pyridin-4-yl)-1H-1,2,3-triazol-4-yl)methyl)piperidin-4-yl)phenol] was run?
Its Ki range for both μ and σ1 (dual-binding class) is less than 500 nM.

`CC(C)Cn1cc(CN2CCC(c3cccc(O)c3)CC2)nn1` [Example 25, 3-(1-((1-isobutyl-1H-1,2,3-triazol-4-yl)methyl)piperidin-4-yl)phenol] was tested. Which Ki range for both μ and σ1 (dual-binding class) did it give?
The Ki range for both μ and σ1 (dual-binding class) was less than 100 nM.

How did the Ki range for both μ and σ1 (dual-binding class) turn out when `Fc1ccc(Nc2cccc(C3CCN(Cc4cn(Cc5ccccn5)nn4)CC3)c2)nc1` [Example 232, 5-fluoro-N-(3-(1-((1-(pyridin-2-ylmethyl)-1H-1,2,3-triazol-4-yl)methyl)piperidin-4-yl)phenyl)pyridin-2-amine] was run?
Its Ki range for both μ and σ1 (dual-binding class) is less than 500 nM.

Which Ki range for both μ and σ1 (dual-binding class) does the source give for `CS(=O)(=O)Nc1ccc(F)c(C2CCN(Cc3cn(Cc4ccccc4)nn3)CC2)c1` [Example 87, N-(3-(1-((1-benzyl-1H-1,2,3-triazol-4-yl)methyl)piperidin-4-yl)-4-fluorophenyl)methanesulfonamide] here?
Its Ki range for both μ and σ1 (dual-binding class) is less than 500 nM.

How did the Ki range for both μ and σ1 (dual-binding class) turn out when `CC(=O)Nc1nc2c(C3CCN(Cc4cn(-c5ccccc5)nn4)CC3)cccc2s1` [Example 49, N-(4-(1-((1-Phenyl-1H-1,2,3-triazol-4-yl)methyl)piperidin-4-yl)benzo[d]thiazol-2-yl)acetamide] was run?
The Ki range for both μ and σ1 (dual-binding class) was less than 100 nM.

For `Oc1cccc(C2CCN(Cc3cn([C@@H]4Cc5ccccc5[C@@H]4O)nn3)CC2)c1` [Example 96, (1S,2R)-2-(4-((4-(3-hydroxyphenyl)piperidin-1-yl)methyl)-1H-1,2,3-triazol-1-yl)-2,3-dihydro-1H-inden-1-ol], which Ki range for both μ and σ1 (dual-binding class) is on record?
The Ki range for both μ and σ1 (dual-binding class) was less than 500 nM.

Which Ki range for both μ and σ1 (dual-binding class) does the source give for `Oc1cccc(C2CCN(Cc3cn([C@@H]4c5ccccc5C[C@H]4O)nn3)CC2)c1` [Example 15, (1R,2R)-1-(4-((4-(3-hydroxyphenyl)piperidin-1-yl)methyl)-1H-1,2,3-triazol-1-yl)-2,3-dihydro-1H-inden-2-ol] here?
Its Ki range for both μ and σ1 (dual-binding class) is less than 500 nM.

How did the Ki range for both μ and σ1 (dual-binding class) turn out when `CS(=O)(=O)c1cccc(C2CCN(Cc3cn(-c4ccccc4)nn3)CC2)c1` [Example 47, 4-(3-(methylsulfonyl)phenyl)-1-((1-phenyl-1H-1,2,3-triazol-4-yl)methyl)piperidine] was run?
Its Ki range for both μ and σ1 (dual-binding class) is less than 500 nM.

`c1ccc(-n2cc(CN3CCC(c4ccc5nc[nH]c5c4)CC3)nn2)cc1` [Example 21, 6-(1-((1-phenyl-1H-1,2,3-triazol-4-yl)methyl)piperidin-4-yl)-1H-benzo[d]imidazole] was tested. Which Ki range for both μ and σ1 (dual-binding class) did it give?
The Ki range for both μ and σ1 (dual-binding class) was less than 500 nM.

Which Ki range for both μ and σ1 (dual-binding class) does the source give for `Oc1cccc(C2CCN(Cc3cc(Cc4ccccc4)no3)CC2)c1` [Example 177, 3-(1-((3-benzylisoxazol-5-yl)methyl)piperidin-4-yl)phenol] here?
Its Ki range for both μ and σ1 (dual-binding class) is less than 100 nM.

`CC(C)n1cc(CN2CCC(c3cccc(O)c3)CC2)nn1` [Example 23, 3-(1-((1-isopropyl-1H-1,2,3-triazol-4-yl)methyl)piperidin-4-yl)phenol] was tested. Which Ki range for both μ and σ1 (dual-binding class) did it give?
Its Ki range for both μ and σ1 (dual-binding class) is less than 500 nM.

With `OCC(c1ccccc1)n1cc(CN2CCC(c3cccc(O)c3)CC2)nn1` (stereo not drawn) [Example 67, 3-(1-((1-(2-hydroxy-1-phenylethyl)-1H-1,2,3-triazol-4-yl)methyl)piperidin-4-yl)phenol] as the compound, how does the Ki range for both μ and σ1 (dual-binding class) read?
Its Ki range for both μ and σ1 (dual-binding class) is less than 500 nM.
